Measurements: paper PMC2668075 (PLoS ONE, 2009)
Peptide text beside a SMILES is read from it. * marks the point of attachment. AMC = Cc1cc(=O)oc2cc(N*)ccc12

Target: T1, HcDppIVA (Histoplasma ohiense, UniProt A0ACF1AGW9)
T1 construct: gene DPP4
Details: pH and temperature series (optimum pH 8, 42 °C); 1 h

With `Cc1cc(=O)oc2cc(NC(=O)[C@@H]3CCCN3C(=O)CN)ccc12` [Gly-pro-AMC] (H-Gly-Pro-{AMC}) the “fluorescent AMC release assay” value was “We measured DppIV activity of the purified preparation towards Gly-pro-AMC”.
